Our source for the IC50, bioavailability and AUC(0-t) values is patent US20240124454A1, “TRICYCLIC COMPOUND AND USE THEREOF” (NANJING ZAIMING PHARMACEUTICAL CO., LTD., priority 2020, published 2024).

Where two headings read alike, the source gives them in different places.

The subject of data set [1] is HCT116 MTAP^−/− cells. Put plainly: Cell proliferation inhibition test (Cell-Titer Glo), HCT116 MTAP−/−. Conditions: 6 days, read-out: HCT116 MTAP−/− Antiproliferative activity IC50. In kind it is cell-based, human. The essentials: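 Cells seeded at 400 per well, overnight, then exposed 6 days at 37 °C to compound from 10 μM top final concentration in 3-fold dilutions. Viability by ATP luminescence (Cell-Titer Glo), normalised to medium-only and DMSO controls, IC50 by curve fitting.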

The nature of data set [2]: Pharmacokinetics in Balb/c Nude mice. In kind it is in vivo. As to conditions: female, mouse, plasma; for bioavailability: Balb/c Nude, vs IV 1 mg/kg; for AUC(0-t): Balb/c Nude mice, read-out: AUC0-24. The method, then:
Test Example 9. Determination of Pharmacokinetics of Compounds of Present Application
The pharmacokinetics of the compounds of the present application were determined in mice using the following method.
I. Materials: • Balb/c Nude mice, purchased from Beijing Vital River Laboratory Animal Technology Co., Ltd. • NMP (N-methyl-2-pyrrolidone), Solutol® HS 15 (polyoxyethylenated 12-hydroxystearic acid), and Vitamin E TPGS (D-a-tocopherol-polyethylene glycol 1000 succinate), purchased from Sigma. • Acetonitrile, purchased from Merck (USA).
II. Vehicle preparation: • 10% aqueous VE TPGS solution: 1 g of VE TPGS was dissolved in purified water, and the volume was brought to 10 mL. • 5% NMP+10% Solutol® HS 15+85% water: 0.5 mL of NMP was measured using a pipette, 1 g of Solutol® HS 15 was weighed, and the volume was brought to 10 mL with water.
6 female Balb/c Nude mice (20-30 g, 4-6 weeks) were randomized into 2 groups of 3. Group 1 was administered with 1 mpk (1 mg/kg) test compound by injection at the tail vein (IV), and the vehicle was 5% NMP+10% Solutol® HS 15+85% water. Group 2 was administered with 1 or 3 mpk test compound by oral administration (PO) (see the table below for specific doses), and the vehicle was 5% NMP+10% Solutol® HS 15+85% water or 10% Vitamin E TPGS aqueous solution. Before the experiment, all animals were given free access to food and water. Blood samples of the mice in each group were collected intravenously pre-dose and at 0.083 h (only the intravenous injection group), 0.25 h, 0.5 h, 1 h, 2 h, 4 h, 6 h, 8 h, and 24 h post-dose. The whole blood samples were collected in K2EDTA vacutainers, and the plasma samples were prepared by 5 min of centrifugation (4000 rpm, 4° C.).
10 μL of mouse plasma was added to 150 μL acetonitrile solvent (containing an internal standard) to precipitate the protein. The mixture was vortexed for 0.5 min and centrifuged (14000 rpm) for 5 min. The supernatant was diluted 2-fold with water containing 0.1% (v/v) FA and quantitatively detected on an LC-MS/MS system (AB Sciex Triple Quad 6500+). When the concentration of the sample was measured, quality control samples were also analyzed and a Balb/c Nude mouse plasma standard curve was plotted. For 10× diluted samples, 2 μL of the sample was added to 18 μL of blank plasma. The mixture was vortexed for 0.5 min. Then 300 μL of acetonitrile solvent (containing an internal standard) was added to precipitate the protein. The other steps were the same as those in undiluted samples.

[3] abbreviates: PO 1 mg/kg, vehicle 5% NMP + 10% Solutol HS 15 + 85% water.
[4] abbreviates: PO 3 mg/kg, vehicle 10% VE TPGS aqueous solution.

In the case of `Cc1ncccc1-n1c(=O)c2ncn(C)c2c2ccc(C(F)(F)F)nc21` (atropisomer, axis not shown) [Compound 20, 1-methyl-5-(2-methylpyridin-3-yl)-7-(trifluoromethyl)-1,5-dihydro-4H-imidazo[4,5-c][1,8]naphthyridin-4-one], the IC50 in data set [1] (Homo sapiens, HCT-116, 144 h) amounted to 76.5 nM.
In general, bioavailability refers to the share of a dose that reaches the circulation, judged against a reference dose that is usually intravenous. Regarding `Cn1cnc2c(=O)n(-c3cccc(F)c3Cl)c3nc(C(F)(F)F)ccc3c21` (atropisomer, axis not shown) [Compound 25, 5-(2-chloro-3-fluorophenyl)-1-methyl-7-(trifluoromethyl)-1,5-dihydro-4H-imidazo[4,5-c][1,8]naphthyridin-4-one], in data set [1] (Homo sapiens, HCT-116, 144 h), the IC50 was found to be 155 nM. For the same molecule, in data set [2] (setting [3]), the bioavailability is ~100% and the AUC(0-t) is 5840 ng·h/mL.
For the molecule `Cn1cnc2c(=O)n(-c3cccc(F)c3Cl)c3nc(C(F)(F)F)ccc3c21` (single isomer, unassigned) [Compound 25-P2, 5-(2-chloro-3-fluorophenyl)-1-methyl-7-(trifluoromethyl)-1,5-dihydro-4H-imidazo[4,5-c][1,8]naphthyridin-4-one], in data set [1] (Homo sapiens, HCT-116, 144 h), the IC50 stood at 70.5 nM. Moreover, in data set [2] (setting [4]), the bioavailability was ~100% and the AUC(0-t) is 30300 ng·h/mL.
For the molecule `Cn1cnc2c(=O)n(-c3cccnc3C(F)(F)F)c3nc(C(F)(F)F)ccc3c21` (single isomer, unassigned) [Compound 41-P2, 1-methyl-7-(trifluoromethyl)-5-(2-(trifluoromethyl)pyridin-3-yl)-1,5-dihydro-4H-imidazo[4,5-c][1,8]naphthyridin-4-one], the IC50 in data set [1] (Homo sapiens, HCT-116, 144 h) came out at 80.1 nM. Moreover, in data set [2] (setting [3]), the bioavailability was ~100% and the AUC(0-t) stood at 10500 ng·h/mL.
In the case of `Cn1cnc2c(=O)n(-c3cccnc3C3CC3)c3nc(C(F)(F)F)ccc3c21` (single isomer, unassigned) [Compound 42-P2, 5-(2-cyclopropylpyridin-3-yl)-1-methyl-7-(trifluoromethyl)-1,5-dihydro-4H-imidazo[4,5-c][1,8]naphthyridin-4-one], the IC50 in data set [1] (Homo sapiens, HCT-116, 144 h) worked out at 44.2 nM. In data set [2] (setting [3]), the bioavailability was ~100% and the AUC(0-t) was 10500 ng·h/mL.
For `Cn1cnc2c(=O)n(-c3cccnc3C3CC3)c3cc(C(F)(F)F)ccc3c21` (single isomer, unassigned) [Compound 48-P2, 5-(2-cyclopropylpyridin-3-yl)-1-methyl-7-(trifluoromethyl)-1,5-dihydro-4H-imidazo[4,5-c]quinolin-4-one], in that order: 90.9 nM, ~100% and 24400 ng·h/mL.
The like results for `Cn1cnc2c(=O)n(-c3cccnc3C3CC3)c3cc(Cl)ccc3c21` (single isomer, unassigned) [Compound 49-P2, 7-chloro-5-(2-cyclopropylpyridin-3-yl)-1-methyl-1,5-dihydro-4H-imidazo[4,5-c]quinolin-4-one] were, in that order, 34.4 nM, 89.6% and 11300 ng·h/mL.
Regarding `O=c1c2ncoc2c2ccc(C(F)(F)F)nc2n1-c1cccnc1C1CC1` (single isomer, unassigned) [Compound 81-P2, 5-(2-cyclopropylpyridin-3-yl)-7-(trifluoromethyl)oxazolo[4,5-c][1,8]naphthyridin-4(5H)-one], in data set [1] (Homo sapiens, HCT-116, 144 h), the IC50 stood at 111 nM.
Regarding `Cn1cnc2c(=O)n(-c3cccc(F)c3Cl)c3cc(Cl)ccc3c21` [Compound 39, 7-chloro-5-(2-chloro-3-fluorophenyl)-1-methyl-1,5-dihydro-4H-imidazo[4,5-c]quinolin-4-one], the IC50 in data set [1] was 106 nM.
As for `Cc1ncccc1-n1c(=O)c2ncoc2c2ccc(C(F)(F)F)nc21` [Compound 40, 5-(2-methylpyridin-3-yl)-7-(trifluoromethyl)oxazolo[4,5-c][1,8]naphthyridin-4(5H)-one], in data set [1] (Homo sapiens, HCT-116, 144 h), the IC50 was found to be 120 nM.
Still for that read-out and setting: to `Cc1ncccc1-n1c(=O)c2ncn(C)c2c2ccc(C(F)(F)F)cc21` [Compound 45, 1-methyl-5-(2-methylpyridin-3-yl)-7-(trifluoromethyl)-1,5-dihydro-4H-imidazo[4,5-c]quinolin-4-one] belongs 134 nM.
